Source: publication PMC10786692 (The Journal of Clinical Investigation, 2024)

Experiments:
[1] = Dose-limiting toxicity, MTD and RP2D determination; type: in vivo; settings: for Number of DLT: 3 evaluable; for Patients with DLT / number of DLT: 6 evaluable
Description: For part A (dose escalation; Figure 1, A and B), the starting dose of 20 mg was selected based on animal toxicity studies. Dosing was continuous, and escalation used a modified Fibonacci method. Initial dose escalation was planned in single patient cohorts, changing to 3+3 design after the first grade-2 toxicity was seen. […] DLT definitions are in the Supplemental Methods.
For part B, all patients received the RP2D as defined for part A. Part B allowed for different schedules (continuous/intermittent) to be assessed. Initially, a continuous dosing schedule was used for the first 6 patients. […] Pretreatment biopsy was mandatory in part B. DNA-Seq of archival tumor material or review of external tumor sequencing was used to enrich for patients with putative genomic markers of sensitivity to ATRi, based on preclinical data, including oncogene amplification or driver mutation, ATM/G1 pathway defects (alteration in ATM, CHK2, or other components of the pathway causing G1 cell-cycle arrest after DNA damage), SWI/SNF (switch/sucrose nonfermentable, a chromatin-remodeling complex) pathway defect, genomic instability/homologous recombination deficit (HRD), or defect in a gene synthetically lethal with ATRi in published data ([46], [47]) (Figure 1B and Supplemental Table 3). […]
Criteria for Dose Limiting Toxicity
1. Hematological toxicity
1. Grade 3 thrombocytopenia with bleeding
2. Grade 4 thrombocytopenia
3. Grade 4 neutropenia lasting >7 days in the absence of growth factor […]
and/or systemic infection
5. Any other grade ≥4 hematological toxicity
2. Cardiovascular toxicity
1. Clinically significant hypotension defined as an asymptomatic fall in systolic blood pressure more than 20mmHg to below 70mmHg persisting for at least 10 minutes
2. Symptomatic orthostatic fall in systolic blood pressure of more than 20mmHg compared to resting supine blood pressure
3. Prolongation of QTc >0.5 seconds (using an appropriate correction […]
3. Gastrointestinal/hepatic toxicity
1. ALT or AST >5 times ULN; ALP >5 times ULN with elevated gamma- GT
2. ALT or AST >3 times ULN (or ALP >3 times ULN with elevated gamma-GT) with the appearance of symptoms associated with a clinical diagnosis of hepatitis including right upper quadrant pain or tenderness, fever, rash, or eosinophilia (>5%)
3. [ALT or AST >3 times ULN] and [total bilirubin >2 times ULN] or INR >1.5x ULN (unless patient receiving warfarin) (or other evidence of impaired liver synthetic function)
4. Any other grade 3-4 non-hematological toxicity occurring during the time period from the first dose to the end of the first cycle
2. Excluding grade 3 nausea or vomiting if ameliorated by medical management
3. Excluding grade 3 fatigue unless there is an increase by 2 grades from baseline
5. Any dose in cycle 1, or the start of cycle 2, delayed by more than 7 days due to toxicity or patient unable to complete cycle 1 at the planned dose due to toxicity (parts A and B only)
6. Any other toxicity that is greater than baseline, is clinically significant and/or unacceptable, does […]
is considered to be dose-limiting by the investigators.

advanced solid tumors = test: Antitumor response by RECIST 1.1 and duration on study; type: in vivo, human; settings: for Patients with PR: 40 mg BD or more
tumor biopsies = test: RNA-Seq differential gene expression / GSEA of paired tumor biopsies; type: in vivo, human; settings: after 2 weeks of ceralasertib
Description: Eight paired tumor biopsies were analyzed from 3 patients with PR, 4 with SD, and 1 NE, treated at various dose levels. Additional baseline samples were also available for 1 PR and 1 SD. When all samples were considered together, there were few differences in differential gene expression between baseline and on-treatment biopsies (Figure 5A). However, when responders (PR) were compared with nonresponders (SD), there were marked differences in both baseline and on-treatment gene expression (Figure 5, B–E) with clustering of a number of differentially expressed genes according to response (Supplemental Figure 8). […]
Formalin fixed paraffin-embedded tumor samples were used. […] H-score was calculated using HALO image analysis (Indica Labs). […] Nuclear ATM (Abcam 32420) IHC staining was carried out on the Ventana autostainer, using DAB detection and assessed by H-score, but samples were only deemed acceptable if lymphocyte staining (internal control) was at least 2+ (moderate) intensity. Cyclin E1 (Invitrogen HE12) staining was carried out on the Ventana autostainer, using DAB detection and the H-score was quantified using HALO image analysis (Indica Labs). Ki67 (Mib-1, Dako M7240) was scored by percent nuclear positivity using a global unweighted method, scoring 4 areas of 100 cells. […] Quantification of tumor-infiltrating lymphocytes was done using a semi-automated method in QuPath (53). […]

Q: Which “Number of DLT” value ([1]; 20 mg BD) does the source give for `C[C@@H]1COCCN1c1cc(C2([S@](C)(=N)=O)CC2)nc(-c2cc[nH]c3nccc2-3)n1` [ceralasertib] here?
A: Its value is 0.

Q: What about the “Number of DLT” value ([1]; 40 mg BD) of the same compound?
A: The value was 0.

Q: And the “Patients with DLT / number of DLT” value ([1]; 80 mg BD)?
A: Its value is 1.

Q: And the “Patients with DLT / number of DLT” value ([1]; 240 mg BD)?
A: The value was 3.

Q: And the “Recommended phase 2 dose (RP2D)” value ([1]; BD (twice daily), intermittent: 2 weeks on, 2 weeks off, 4-weekly cycle)?
A: The value was 160 mg.

Q: And the Maximum tolerated dose ([1]; BD, continuous dosing, dose escalation)?
A: The Maximum tolerated dose was 160 mg.

Q: And the “Patients with PR” value (advanced solid tumors; mutation of interest, 4 of 30)?
A: Its value is 13%.

Q: What about the “Patients with PR” value (advanced solid tumors; no mutation of interest, 1 of 11) of the same compound?
A: Its value is 9%.

Q: And the “Progressive disease, n (%)” value (advanced solid tumors; 160 mg BD or more, n = 49)?
A: The value was 15 (30%).

Q: And the “Median duration on treatment” value (advanced solid tumors; 4 ATM-low patients, range 8–29)?
A: The value was 13 weeks.

Q: And the “Patients deriving clinical benefit” value (advanced solid tumors; 11 patients with oncogene-driven tumors)?
A: The value was 3.

Q: What about the “Best overall response: progressive disease incl. clinical progression, n (%)” value (advanced solid tumors; 66 evaluable patients) of the same compound?
A: The value was 27 (41%).

Q: What about the “Best overall response: stable disease incl. 1 unconfirmed PR, n (%)” value (advanced solid tumors; 66 evaluable patients) of the same compound?
A: Its value is 34 (52%).

Q: And the “Best overall response: confirmed partial responses, n (%)” value (advanced solid tumors; 66 evaluable patients, 20–240 mg BD)?
A: Its value is 5 (8%).

Q: And the Duration (advanced solid tumors; ARID1A E1387X, lobular breast carcinoma)?
A: The Duration was 42 days.

Q: What about the Duration (advanced solid tumors; ARID1A Q1188X, ovarian clear cell) of the same compound?
A: Its Duration is 275 days.

Q: And the Duration (advanced solid tumors; ARID1A R693*, eccrine adenocarcinoma)?
A: The Duration was 240 days.

Q: And the Duration (advanced solid tumors; ARID1A S1623L, cervix adenocarcinoma)?
A: Its Duration is 203 days.

Q: What about the Duration (advanced solid tumors; ARID2 Y854fs, SCCHN) of the same compound?
A: The Duration was 697 days.

Q: And the Tumor shrinkage (advanced solid tumors; ARID2 frameshift-bearing HNSCC)?
A: The Tumor shrinkage was 29%.

Q: What about the “Patients experiencing SD” value (advanced solid tumors; ATM-low patients) of the same compound?
A: Its value is 3 of 4.

Q: What about the Best response (advanced solid tumors; CCNE1 amplification, peritoneal carcinoma, 20 mg BD) of the same compound?
A: The Best response was “progressive disease”.

Q: And the “Duration on study with SD” value (advanced solid tumors; CCNE1 amplification, serous endometrial carcinoma)?
A: The value was 12 weeks.

Q: What about the “Duration of RECIST SD / on study” value (advanced solid tumors; HNSCC with ARID2 frameshift) of the same compound?
A: The value was 99 weeks.

Q: And the “Duration of RECIST SD” value (advanced solid tumors; HNSCC with CCND1 amplification)?
A: The value was 49 weeks.

Q: And the Duration on study (advanced solid tumors; HNSCC, MRE11 and CDKN2A mutation)?
A: The Duration on study was 1,194 days.

Q: What about the Duration on study (advanced solid tumors; HNSCC, RECIST PR, 40 mg BD) of the same compound?
A: Its Duration on study is 106 days.

Q: What about the “Duration of RECIST SD” value (advanced solid tumors; HNSCC, no sequencing available) of the same compound?
A: The value was 48 weeks.

Q: What about the “Duration on study with confirmed PR” value (advanced solid tumors; MRE11 stop-gain R633X with CDKN2A stop-gain) of the same compound?
A: Its value is “more than 32 months”.

Q: And the Duration (advanced solid tumors; PBRM S295*, SCCHN)?
A: The Duration was 112 days.

Q: What about the “Median duration of response” value (advanced solid tumors; PR or SD, with a mutation of interest) of the same compound?
A: The value was 185.5 days.

Q: And the “Median duration of response” value (advanced solid tumors; PR or SD, without a mutation of interest)?
A: The value was 105 days.

Q: What about the Duration of response (advanced solid tumors; PR, HNSCC with APC frameshift and TP53 mutation, 40 mg BD) of the same compound?
A: Its Duration of response is 15 weeks.

Q: What about the Duration of response (advanced solid tumors; PR, HNSCC with CDKN2A and MRE11A frameshift, 160 mg BD, remains on study) of the same compound?
A: The Duration of response was 170 weeks.

Q: And the Duration of response (advanced solid tumors; PR, esophageal squamous cell carcinoma, HR/Fanconi deficiency, 160 mg BD)?
A: The Duration of response was 47 weeks.

Q: What about the Duration of response (advanced solid tumors; PR, nasopharyngeal carcinoma, NRAS activating mutation, 240 mg BD) of the same compound?
A: The Duration of response was 14 weeks.

Q: And the Duration of response (advanced solid tumors; PR, ovarian clear cell carcinoma, ARID1A mutation, 160 mg BD, remains on study)?
A: The Duration of response was 251 weeks.

Q: And the “Median duration of response” value (advanced solid tumors; RECIST PR patients, IQR 14.9–251.0)?
A: Its value is 46.7 weeks.

Q: And the “Duration of RECIST SD” value (advanced solid tumors; digital papillary adenocarcinoma with TP53 mutation)?
A: Its value is 51 weeks.

Q: And the “Duration of SD” value (advanced solid tumors; eccrine adenocarcinoma, ARID1A R693X, CDKN2A deletion, 240 mg BD)?
A: Its value is 34 weeks.

Q: And the Duration on study (advanced solid tumors; esophageal squamous cell carcinoma, RECIST PR, 160 mg BD intermittent)?
A: Its Duration on study is 575 days.

Q: What about the “Duration of SD” value (advanced solid tumors; increased cyclin E1 by IHC, cervical adenocarcinoma) of the same compound?
A: The value was 29 weeks.

Q: And the “Duration of SD” value (advanced solid tumors; increased cyclin E1 by IHC, serous endometrial carcinoma, germline BRCA1 mutation)?
A: The value was 16 weeks.

Q: What about the Duration on study (advanced solid tumors; nasopharyngeal carcinoma, NRAS activation, RECIST PR, 240 mg BD) of the same compound?
A: The Duration on study was 341 days.

Q: And the Duration on study (advanced solid tumors; pancreatic adenocarcinoma, unconfirmed PR, 160 mg BD intermittent)?
A: The Duration on study was 480 days.

Q: What about the “Duration on study with SD” value (advanced solid tumors; pathogenic ATM mutation R1898fsX with coexisting ARID1A mutation) of the same compound?
A: Its value is 39 weeks.

Q: And the “Participants deriving clinical benefit” value (advanced solid tumors; seven participants with SWI/SNF pathway aberrations)?
A: The value was 6.

Q: And the Duration of response (advanced solid tumors; unconfirmed PR, TP53 mutant pancreatic adenocarcinoma, 160 mg BD)?
A: Its Duration of response is 15 weeks.

Q: And the “Inflammatory response genes (GSEA), on-treatment versus baseline tumor samples” value (tumor biopsies)?
A: Its value is “enrichment”.
